Results on five compounds are retold here after patent US8828925B2, “Etoposide and doxorubicin conjugates for drug delivery” (Angiochem Inc., priority 2008, dated 2014).

Like-named read-outs stand apart in the source and are kept apart here.

Broadly, the IC50 is the concentration at which inhibition is half-maximal.

In data set [1] the test system is U87 cells in nude mice brain. Briefly: intracerebral human brain tumor model (U87), survival. The conditions noted are these: doxorubicin 6 mg/kg, (DoxSu)3-An2 40 mg/kg i.v. 1× per week. Format: in vivo. As to the method:
The intracerebral human brain tumor model was established by stereotactic inoculation of 5×10^5 U87 cells in nude mice brain. Female athymic nude mice (Crl:Nu/Nu-nuBR; 20-25 g, 4-6 weeks old; Charles River Canada, St-Constant, QC) were used for tumor models and were maintained in a pathogen-free environment. One hour before surgery, mice received a subcutaneous injection of buprenorphine (0.1 mg kg^−1). For tumor cell inoculation, mice were anesthetized by i.p. injection of ketamine/xylazine (120/10 mg kg^−1) and placed in a stereotactic apparatus (Kopf; Tujunga, Calif.). A burr hole was drilled 1.5 mm anterior and 2.5 mm lateral to the bregma. The cell suspension in 5 μL of serum free cell culture medium was injected over a 5 minute period using a Hamilton syringe at a depth of 3.5 mm.
Drug treatment started 3 days post-inoculation (Table 8). […] Drug solutions were prepared in dextrose 5% water (D5W). Injection solutions were freshly prepared before each administration. Clinical signs of disease progression and body weights were monitored everyday. When mice reached terminal endpoints (20% of decrease in body weight), they were sacrificed by carbon dioxide asphyxiation.

For data set [2], the system named is mouse brain. The conditions noted are these: in vivo.
Procedure: (§1) The uptake of [^125I]-polypeptides to the luminal side of mouse brain capillaries was measured using the in situ brain perfusion method adapted in our laboratory for the study of agent uptake in the mouse brain.
(§2) Polypeptides were iodinated with standard procedures using iodo-beads from Sigma. Briefly polypeptides were diluted in 0.1 M phosphate buffer, pH 6.5 (PB). Two iodo-beads were used for each protein. These beads were washed twice with 3 mL of PB on a Whatman filter and re-suspended in 60 of PB. ^125I (1 mCi) from Amersham-Pharmacia biotech was added to the bead suspension for 5 min at room temperature. Each iodination was initiated by the addition of the polypeptide (100 μg). After an incubation of 10 min at room temperature, the free iodine was removed by HPLC.
(§3) Briefly, the right common carotid of ketamine/xylazine (140/8 mg/kg i.p.) anesthetized mice was exposed and ligated at the level of the bifurcation of the common carotid, rostral to the occipital artery. The common carotid was then catheterized rostrally with polyethylene tubing filled with heparin (25 U/mL) and mounted on a 26-gauge needle. The syringe containing the perfusion fluid ([^125I]-polypeptides or [^14C]-inulin in Krebs/bicarbonate buffer at a pH7.4 gassed with 95% O2 and 5% CO2) was placed in an infusion pump (Harvard pump PHD 2000; Harvard Apparatus) and connected to the catheter. Prior to the perfusion, the contralateral blood flow contribution was eliminated by severing heart ventricles. The brain was perfused for the indicated times at a flow rate of 1.15 mL/min. After 14.5 min of perfusion, the brain was further perfused for 60 seconds with Krebs buffer to wash the excess of [^125I]-proteins. Mice were then decapitated to terminate perfusion and the right hemisphere was isolated on ice before being subjected to capillary depletion. Aliquots of homogenates, supernatants, pellets and perfusates were taken to measure their contents in [^125I]-conjugates by TCA precipitation and to evaluate the apparent volume of distribution.
Data set [3] concerns Lung Carcinoma (NCI-H460). Briefly: in vitro cell proliferation assay, NCI-H460. Format: cell-based. The conditions noted are these: Table 5.
Data set [4] relates to SK-HEP-1 cells. Briefly: in vitro cell proliferation assay ([3H]-thymidine incorporation), SK-HEP-1.
Procedure: (§4) For the in vitro cell proliferation assay, between 2.5 and 5×10^4 of U87 or SK-HEP-1 cells were seeded in a 24 well tissue culture microplate in a final volume of 1 mL of medium with 10% serum and incubated for 24 hours at 37° C. and 5% CO2. The medium was then replaced with serum-free medium and incubated overnight. The next morning the agent was freshly dissolved in dimethyl sulfoxide (DMSO) and the medium was replaced with complete medium containing the agent at different concentrations in triplicate. The final concentration of DMSO was 0.1%. The control used was a microplate well with cells and without agent. The cells were incubated for 48 to 72 hrs at 37° C. and 5% CO2. After the incubation, the medium was changed and replaced with 1 mL of complete medium containing [^3H]-thymidine (1 pCi/assay). The plate was incubated at 37° C. and 5% CO2 for 4 hrs. The medium as removed, and the cells were washed with PBS at 37° C. The cells were fixed with a mix of ethanol:acetic acid (3:1), washed with water, and precipitated 3 times with 10% of ice-cold TCA (trichloroacetic acid). Finally 500 μL of PCA (perchloric acid) were added to the wells and the microplates were heated for 30 min at 65° C. and 30 min at 75° C. The contents of each well were then transferred to a scintillation vial with 10 mL of scintillation cocktail and the activity was measured in CPM (count per minute) on a liquid scintillation counter Tri-Carb from Packard.
The test system of data set [5] is U87 cells. Briefly: in vitro cell proliferation assay ([3H]-thymidine incorporation), U87. Format: cell-based, human. For orientation: Incorporation of labelled thymidine or its analogues reports DNA synthesis.
Procedure: as §4
Data set [6] deals with P-gp (Mus musculus, UniProt P21447).
Chain of P-gp (P21447 whole entry): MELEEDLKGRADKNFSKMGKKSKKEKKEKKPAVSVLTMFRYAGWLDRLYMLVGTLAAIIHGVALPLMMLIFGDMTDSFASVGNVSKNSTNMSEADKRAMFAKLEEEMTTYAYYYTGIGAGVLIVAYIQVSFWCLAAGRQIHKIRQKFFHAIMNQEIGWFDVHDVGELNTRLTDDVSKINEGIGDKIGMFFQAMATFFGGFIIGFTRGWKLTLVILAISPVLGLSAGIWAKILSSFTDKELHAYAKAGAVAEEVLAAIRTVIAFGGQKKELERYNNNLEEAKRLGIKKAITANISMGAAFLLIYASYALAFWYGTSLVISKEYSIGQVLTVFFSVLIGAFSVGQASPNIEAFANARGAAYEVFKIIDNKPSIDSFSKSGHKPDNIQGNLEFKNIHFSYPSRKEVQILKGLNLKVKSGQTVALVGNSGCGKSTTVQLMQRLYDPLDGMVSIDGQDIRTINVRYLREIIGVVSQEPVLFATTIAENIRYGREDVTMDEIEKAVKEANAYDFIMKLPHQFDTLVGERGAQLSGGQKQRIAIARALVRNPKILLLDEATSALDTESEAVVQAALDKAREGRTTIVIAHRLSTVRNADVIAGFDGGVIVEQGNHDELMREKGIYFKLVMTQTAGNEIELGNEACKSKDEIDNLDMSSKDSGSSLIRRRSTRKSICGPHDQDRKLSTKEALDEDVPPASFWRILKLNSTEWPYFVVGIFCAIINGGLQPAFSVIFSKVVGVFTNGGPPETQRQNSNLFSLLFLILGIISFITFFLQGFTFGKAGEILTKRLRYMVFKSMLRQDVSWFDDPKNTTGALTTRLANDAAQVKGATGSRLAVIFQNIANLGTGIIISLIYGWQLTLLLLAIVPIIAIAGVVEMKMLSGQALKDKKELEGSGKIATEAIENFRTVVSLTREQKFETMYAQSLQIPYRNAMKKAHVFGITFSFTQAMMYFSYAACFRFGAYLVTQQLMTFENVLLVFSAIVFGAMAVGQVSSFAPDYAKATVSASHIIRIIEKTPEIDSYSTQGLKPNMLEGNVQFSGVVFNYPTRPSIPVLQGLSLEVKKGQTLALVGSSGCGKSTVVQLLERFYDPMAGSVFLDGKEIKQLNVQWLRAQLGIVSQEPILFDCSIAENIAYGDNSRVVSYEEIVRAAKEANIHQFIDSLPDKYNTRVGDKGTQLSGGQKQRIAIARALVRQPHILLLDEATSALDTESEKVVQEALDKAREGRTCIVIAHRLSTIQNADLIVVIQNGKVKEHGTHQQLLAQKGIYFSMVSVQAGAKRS
Procedure: as §1
Briefly, the right common carotid of ketamine/xylazine (140/8 mg/kg i.p.) anesthetized mice was exposed and ligated at the level of the bifurcation of the common carotid, rostral to the occipital artery. The common carotid was then catheterized rostrally with polyethylene tubing filled with heparin (25 U/mL) and mounted on a 26-gauge needle. The syringe containing the perfusion fluid ([^125I]-polypeptides or [^14C]-inulin in Krebs/bicarbonate buffer at a pH7.4 gassed with 95% O2 and 5% CO2) was placed in an infusion pump (Harvard pump PHD 2000; Harvard Apparatus) and connected to the catheter. Prior to the perfusion, the contralateral blood flow contribution was eliminated by severing heart ventricles. The brain was perfused for the indicated times at a flow rate of 1.15 mL/min. After 14.5 min of perfusion, the brain was further perfused for 60 seconds with Krebs buffer to wash the excess of [^125I]-proteins. Mice were then decapitated to terminate perfusion and the right hemisphere was isolated on ice before being subjected to capillary depletion. […]
Data set [7] can be described thus: plasma kinetics after bolus administration. The conditions noted are these: IV bolus, 20 mg/kg, mice. Format: in vivo, CD-1 mice. As to the method: FIG. 8 describes the plasma kinetics of Etop-An2(3:1) following administration as a bolus. Radiolabeled (^125I) Etop-An2 (20 mg/kg) was injected in bolus by intravenous (i.v.) or intraperitoneal (i.p.) routes in CD-1 mice weighing about 25-30 g. The injection solution was composed of 12.5% dimethylsulfoxide (DMSO), 12.5% anhydrous ethanol 25% polyethylene glycol 400 (PEG400) and 50% NaCl/Glycine buffer. At several time intervals (0.5, 1, 2, and 6 hours) the blood was collected by cardiac puncture and animals were sacrificed. After blood centrifugation, the plasma radioactivity was measured in a gamma counter (Wizard 1470 Automatic Gamma Counter). The radioactivity was interpreted as % of injected dose per gram of plasma. Results were plotted using GraphPad prism software and the area under the curve (AUC) for each injection mode was calculated. The bioavailability of intraperitoneal Etop-An2 conjugate was then estimated by dividing the AUC after i.p. injection by the AUC after i.v. injection.

The test system of data set [8] is SK-HEP-1 cells.
Procedure: as §4
Data set [9] can be described thus: tissue distribution after IV bolus. Format: in vivo. The conditions noted are these: thirty minutes after IV bolus, mice, FIG. 12. The procedure:
The effect of conjugation of an agent to a vector on distribution of the agent or the pharmacokinetics of a polypeptide that is conjugated to an agent was evaluated by administering a labeled polypeptide or conjugate to an animal and measuring distribution of the polypeptide or conjugate to organs (e.g., using ^3H or ^125I labeled conjugates) to mice. Similar experiments can be performed with compounds that include any of polypeptides described herein (e.g., the polypeptides described in Table 1 such as AngioPep-3, AngioPep-4a, AngioPep-4b, AngioPep-5, AngioPep-6, and AngioPep-7, or analogs thereof). Here, the unconjugated anticancer agent and the conjugates were injected intravenously to mice as a bolus. Tissues were collected at different times (0.25, 0.5, 1, and 4 hrs) and homogenized. To quantify the amount of ^3H-labeled conjugate, tissue homogenates were digested with tissue solubilizer, and 10 mL of liquid scintillator was added to samples. The amount of the ^125I labeled conjugate, in the different tissues is measured after TCA precipitation. Radioactivity associated with the tissues is quantified. The area under the curve (AUC 0-4) is estimated using the Prism software and is plotted for the different tissues.
FIG. 11 compares the brain distribution of Etop-An2(3:1) versus unconjugated etoposide thirty minutes after IV bolus administration to mice.

The subject of data set [10] is mouse brain. The data set is described as follows: in situ brain perfusion (brain uptake).
Procedure: as §1, §2, §3
The conditions of data set [11]: literature data (Reddy et al. 2005); cited from earlier work.
[12] abbreviates: Homo sapiens, SK-HEP1, read-out: IC50 (nM) Hepatocarcinoma (SK-Hep-1).
The mark [13] stands for this setting: Homo sapiens, U-87 MG, Table 5, incubation 48 to 72 hrs, read-out: IC50 (nM) Glioblastoma (U87).

On to `COc1cccc2c1C(=O)c1c(O)c3c(c(O)c1C2=O)C[C@@](O)(C(=O)CO)C[C@@H]3O[C@H]1C[C@H](N)[C@H](O)[C@H](C)O1` [Doxorubicin, doxorubicin], for which, in [1] (Trial 1), the “Survival (days) Mean Trial 1” value stood at 20.6 days. Moreover, the “Survival (days) Median Trial 1” value in data set [1] (Trial 1, treatment from 3 days post-inoculation) came to 21 days. The “Survival (days) Median Trial 2” value in data set [1] (Trial 2) is given as 23 days. The “Brain Kin” value in [2] (pH 7.4) came to 0.00028 mL/s/g. Further, the concentration for half-maximal inhibition (IC50) in data set [3] (Homo sapiens, NCI-H460) came out at 11 nM; in [4] (setting [12]) it was 10 nM; in [5] (setting [13]), 18 nM.

Take `COc1cc([C@@H]2c3cc4c(cc3[C@@H](O[C@@H]3O[C@@H]5CO[C@@H](C)O[C@H]5[C@H](O)[C@H]3OC(=O)CCCC(=O)NCCCC[C@H](NC(=O)CNC(=O)[C@H](CCCNC(=N)N)NC(=O)[C@H](CO)NC(=O)CNC(=O)CNC(=O)[C@H](Cc3ccc(O)cc3)NC(=O)[C@H](Cc3ccccc3)NC(=O)[C@H](Cc3ccccc3)NC(=O)[C@@H](NC(=O)CCCC(=O)O[C@H]3[C@H](O[C@@H]5c6cc7c(cc6[C@@H](c6cc(OC)c(O)c(OC)c6)[C@H]6C(=O)OC[C@@H]65)OCO7)O[C@@H]5CO[C@@H](C)O[C@H]5[C@@H]3O)[C@@H](C)O)C(=O)N[C@@H](CCCNC(=N)N)C(=O)N[C@@H](CC(N)=O)C(=O)N[C@@H](CC(N)=O)C(=O)N[C@@H](Cc3ccccc3)C(=O)N[C@@H](CCCCNC(=O)CCCC(=O)O[C@H]3[C@H](O[C@@H]5c6cc7c(cc6[C@@H](c6cc(OC)c(O)c(OC)c6)[C@H]6C(=O)OC[C@@H]65)OCO7)O[C@@H]5CO[C@@H](C)O[C@H]5[C@@H]3O)C(=O)N[C@H](C(=O)N[C@@H](CCC(=O)O)C(=O)N[C@@H](CCC(=O)O)C(=O)N[C@@H](Cc3ccc(O)cc3)C(=O)O)[C@@H](C)O)[C@H]3COC(=O)[C@H]23)OCO4)cc(OC)c1O` [Etop-An2(3:1), ((2″-Glutaryl)-Etop)3-(Angiopep2)]: in [6], the P-gp substrate status result is listed as “not a P-gp substrate”. The “Vd (slope) relative to the corresponding unconjugated drug” value in data set [2] was “higher”. Further, in data set [7], the “AUC0-∞ (hr°μg/mL)” value was determined as 82 hr°μg/mL. Further, the “Elim. Rate Const.” value in data set [7] is 1.6 h⁻¹. Moreover, the “T1/2α” value in data set [7] came out at 25.8 min. Further, the IC50 in data set [4] (read-out: IC50 (nM) 24 hours, SK-HEP-1, 24 hours) was 160 nM; in data set [4] (read-out: IC50 (nM) 72 hours, SK-HEP-1, 72 hours), 52 nM; in [8], 59 nM; in data set [5] (U-87 Cells, 24 hours, read-out: IC50 (nM) 24 hours) it was 453 nM; in data set [5] (U-87 Cells, 48 hours, read-out: IC50 (nM) 48 hours), 151 nM; in data set [5] (U-87 Cells, 72 hours, read-out: IC50 (nM) 72 hours), 164 nM. In addition, in data set [9], the “concentration in the tissues studied versus unconjugated etoposide” value was “increased concentration in the tissues studied”.

Regarding `COc1cc(C2c3cc4c(cc3[C@@H](O[C@@H]3O[C@@H]5CO[C@@H](C)O[C@H]5[C@H](O)[C@H]3O)[C@H]3COC(=O)[C@H]23)OCO4)cc(OC)c1OC(=O)CN(C)C` (stereo partly drawn) [EtopDMG, Etoposide 4′-Dimethylglycine], the “Brain Kin” value in [10] came to 9e-05 mL/s/g. For the same compound, the 50% inhibitory concentration (IC50) in data set [3] (Homo sapiens, NCI-H460) is 90 nM; in [4] (setting [12]) it was 62 nM; in data set [5] (setting [13]), 145 nM.

Consider `COc1cc([C@@H]2c3cc4c(cc3[C@@H](O[C@@H]3O[C@@H]5CO[C@@H](C)O[C@H]5[C@H](O)[C@H]3O)[C@H]3COC(=O)[C@H]23)OCO4)cc(OC)c1O` [Etoposide], for which, in [11], the T1/2α was 7.8 min. Also, the IC50 in [4] (Homo sapiens, SK-HEP1, 24 h, read-out: IC50 (nM) 24 hours) amounted to 116 nM; in data set [4] (Homo sapiens, SK-HEP1, 72 h, read-out: IC50 (nM) 72 hours), 50 nM; in data set [8], 56 nM; in data set [5] (Homo sapiens, U-87 MG, U-87 Cells, 24 hours, read-out: IC50 (nM) 24 hours), 160 nM; in data set [5] (Homo sapiens, U-87 MG, U-87 Cells, 48 hours, read-out: IC50 (nM) 48 hours) it was 221 nM; in [5] (Homo sapiens, U-87 MG, U-87 Cells, 72 hours, read-out: IC50 (nM) 72 hours), 145 nM.

“(Etoposide-4′-Dimethylglycine-2″-Glutaric)3-Angiopep-2 Conjugate [EtopDMG-An2(3:1)]”: the IC50 in data set [3] amounted to 148 nM; in [4] (read-out: IC50 (nM) Hepatocarcinoma (SK-Hep-1), Table 5, incubation 48 to 72 hrs), 48 nM; in data set [5] (Table 5, incubation 48 to 72 hrs, read-out: IC50 (nM) Glioblastoma (U87)), 330 nM.
